Reference: ChEMBL document CHEMBL2010672, “Pyridyl aminothiazoles as potent Chk1 inhibitors: optimization of cellular activity” (Bioorg Med Chem Lett, 2012)

The compounds below were run on NCI-H1299 (assay: Inhibition of DNA damage-induced cell cycle arrest in human H1299 cells assessed as progression into mitosis measuring mitosis specific-phosphorylation of nucleolin after 8 hrs by checkpoint escape assay). Details: NCI-H1299, 8 h.
Type: functional, cell-based
For NCCNC(=O)c1cncc(-c2cnc(Nc3cc(N4CCOCC4)ccn3)s2)c1, the EC50 was 460 nM. With O=C(CN1CCN(c2ccnc(Nc3ncc(-c4cccnc4)s3)c2)CC1)N1CCOCC1 the EC50 was greater than 50000 nM. For Cc1ccc(-c2cnc(Nc3cc(N4CCNCC4)ccn3)s2)cn1, the EC50 was 1370 nM. c1cncc(-c2cncc(-c3cnc(Nc4cc(N5CCOCC5)ccn4)s3)c2)c1 showed an EC50 greater than 10000 nM. c1ncc(-c2cncc(-c3cnc(Nc4cc(N5CCOCC5)ccn4)s3)c2)cn1 showed an EC50 greater than 10000 nM. c1cc(N2CCNCC2)cc(Nc2ncc(-c3cncc(-c4cn[nH]c4)c3)s2)n1 gave an EC50 of 5530 nM. With CS(=O)(=O)N1CCN(c2ccnc(Nc3ncc(-c4cncc(C(=O)NCCN)c4)s3)c2)CC1 the EC50 was 500 nM. Work on CC(=O)N1CCN(c2ccnc(Nc3ncc(-c4cncc(C(=O)NCCN)c4)s3)c2)CC1 yielded an EC50 of 1210 nM. Cc1ccc(-c2cnc(Nc3cccc(NCCCN)n3)s2)cn1 gave an EC50 greater than 16700 nM. In the case of c1ccc(-c2cnc(Nc3cccc(N4CCNCC4)n3)s2)cc1, the EC50 is reported as greater than 16700 nM. Cc1ccc(-c2cnc(Nc3cccc(N4CCNCC4)n3)s2)cn1 gave an EC50 greater than 16700 nM. For c1ncc(-c2cnc(Nc3cc(N4CCNCC4)ccn3)s2)cn1, the EC50 was 1530 nM. In the case of Brc1cncc(-c2cnc(Nc3cc(N4CCNCC4)ccn3)s2)c1, the EC50 is reported as greater than 50000 nM. With c1cn(-c2cncc(-c3cnc(Nc4cc(N5CCOCC5)ccn4)s3)c2)nn1 the EC50 was 1390 nM. In the case of Cn1cc(-c2cncc(-c3cnc(Nc4cc(N5CCNCC5)ccn4)s3)c2)cn1, the EC50 is reported as 1330 nM. Compound c1cncc(-c2cncc(-c3cnc(Nc4cc(N5CCNCC5)ccn4)s3)c2)c1 has an EC50 of 570 nM. O=C(O)c1cncc(-c2cnc(Nc3cc(N4CCNCC4)ccn3)s2)c1 was tested, and the EC50 was greater than 10000 nM. Work on NC(=O)c1cncc(-c2cnc(Nc3cc(N4CCOCC4)ccn3)s2)c1 yielded an EC50 greater than 10000 nM. With Cc1ccc(NC(=O)c2cncc(-c3cnc(Nc4cc(N5CCOCC5)ccn4)s3)c2)s1 the EC50 was 920 nM. For CNC(=O)c1cncc(-c2cnc(Nc3cc(N4CCOCC4)ccn3)s2)c1, the EC50 was 300 nM. NCCNC(=O)c1cncc(-c2cnc(Nc3cc(Cl)ccn3)s2)c1 gave an EC50 of 940 nM. Compound NCCNC(=O)c1cncc(-c2cnc(Nc3ncccc3Cl)s2)c1 has an EC50 of 330 nM. With Cc1cccnc1Nc1ncc(-c2cncc(C(=O)NCCN)c2)s1 the EC50 was 430 nM. Compound NCCNC(=O)c1cccc(-c2cnc(Nc3cc(N4CCC(F)(F)CC4)ccn3)s2)c1 has an EC50 greater than 10000 nM. NCCNC(=O)c1cncc(-c2cnc(Nc3ccccc3Cl)s2)c1 gave an EC50 greater than 10000 nM. In the case of O=C(NCCO)c1cncc(-c2cnc(Nc3cc(N4CCOCC4)ccn3)s2)c1, the EC50 is reported as greater than 10000 nM. With O=C(NCC(F)(F)F)c1cncc(-c2cnc(Nc3cc(N4CCOCC4)ccn3)s2)c1 the EC50 was 198 nM. With CS(=O)(=O)N1CCN(c2ccnc(Nc3ncc(-c4cncc(C(=O)NCC(F)(F)F)c4)s3)c2)CC1 the EC50 was 106 nM. NCCNC(=O)c1cncc(-c2cnc(Nc3cc(N4CCC(F)CC4)ccn3)s2)c1 was tested, and the EC50 was 484 nM.

What follows are compounds tested against Cyclin-dependent kinase 7 (Homo sapiens, UniProt P50613) (assay: Inhibition of CDK7). Details: not given.
Chain of Cyclin-dependent kinase 7 (P50613 whole entry): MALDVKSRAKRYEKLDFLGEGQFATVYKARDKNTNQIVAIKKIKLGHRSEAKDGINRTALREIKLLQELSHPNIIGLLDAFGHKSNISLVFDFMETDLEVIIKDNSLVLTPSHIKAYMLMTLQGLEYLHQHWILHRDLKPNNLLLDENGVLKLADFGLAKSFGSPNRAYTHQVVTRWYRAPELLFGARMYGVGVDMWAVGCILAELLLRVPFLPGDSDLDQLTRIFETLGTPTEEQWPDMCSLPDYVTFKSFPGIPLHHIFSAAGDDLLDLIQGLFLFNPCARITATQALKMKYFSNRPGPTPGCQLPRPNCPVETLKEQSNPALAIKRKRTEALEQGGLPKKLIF
With NCCNC(=O)c1cncc(-c2cnc(Nc3cc(N4CCOCC4)ccn3)s2)c1 the IC50 was 340 nM. Work on O=C(CN1CCN(c2ccnc(Nc3ncc(-c4cccnc4)s3)c2)CC1)N1CCOCC1 yielded an IC50 of 1760 nM. For Cc1ccc(-c2cnc(Nc3cc(N4CCNCC4)ccn3)s2)cn1, the IC50 was greater than 20000 nM. For c1cncc(-c2cncc(-c3cnc(Nc4cc(N5CCOCC5)ccn4)s3)c2)c1, the IC50 was greater than 10000 nM. c1ncc(-c2cncc(-c3cnc(Nc4cc(N5CCOCC5)ccn4)s3)c2)cn1 showed an IC50 greater than 10000 nM. c1cc(N2CCNCC2)cc(Nc2ncc(-c3cncc(-c4cn[nH]c4)c3)s2)n1 gave an IC50 of 260 nM. With CS(=O)(=O)N1CCN(c2ccnc(Nc3ncc(-c4cncc(C(=O)NCCN)c4)s3)c2)CC1 the IC50 was 170 nM. Compound CC(=O)N1CCN(c2ccnc(Nc3ncc(-c4cncc(C(=O)NCCN)c4)s3)c2)CC1 has an IC50 of 210 nM. In the case of Cc1ccc(-c2cnc(Nc3cccc(NCCCN)n3)s2)cn1, the IC50 is reported as 870 nM. For c1ccc(-c2cnc(Nc3cccc(N4CCNCC4)n3)s2)cc1, the IC50 was 26 nM. Cc1ccc(-c2cnc(Nc3cccc(N4CCNCC4)n3)s2)cn1 showed an IC50 of 1000 nM. For c1ncc(-c2cnc(Nc3cc(N4CCNCC4)ccn3)s2)cn1, the IC50 was 11000 nM. c1cc(Nc2ncc(-c3cncnc3)s2)nc(N2CCNCC2)c1 showed an IC50 of 410 nM. Work on Brc1cncc(-c2cnc(Nc3cc(N4CCNCC4)ccn3)s2)c1 yielded an IC50 of 480 nM. Work on c1cn(-c2cncc(-c3cnc(Nc4cc(N5CCOCC5)ccn4)s3)c2)nn1 yielded an IC50 greater than 10000 nM. For Cn1cc(-c2cncc(-c3cnc(Nc4cc(N5CCNCC5)ccn4)s3)c2)cn1, the IC50 was greater than 2000 nM. In the case of c1cncc(-c2cncc(-c3cnc(Nc4cc(N5CCNCC5)ccn4)s3)c2)c1, the IC50 is reported as greater than 10000 nM. Work on O=C(O)c1cncc(-c2cnc(Nc3cc(N4CCNCC4)ccn3)s2)c1 yielded an IC50 greater than 10000 nM. Compound NC(=O)c1cncc(-c2cnc(Nc3cc(N4CCOCC4)ccn3)s2)c1 has an IC50 greater than 3700 nM. In the case of Cc1ccc(NC(=O)c2cncc(-c3cnc(Nc4cc(N5CCOCC5)ccn4)s3)c2)s1, the IC50 is reported as greater than 10000 nM. In the case of CNC(=O)c1cncc(-c2cnc(Nc3cc(N4CCOCC4)ccn3)s2)c1, the IC50 is reported as greater than 10000 nM. NCCNC(=O)c1cncc(-c2cnc(Nc3cc(Cl)ccn3)s2)c1 was tested, and the IC50 was 940 nM. NCCNC(=O)c1cncc(-c2cnc(Nc3ncccc3Cl)s2)c1 showed an IC50 of 960 nM. In the case of Cc1cccnc1Nc1ncc(-c2cncc(C(=O)NCCN)c2)s1, the IC50 is reported as 910 nM. In the case of NCCNC(=O)c1cccc(-c2cnc(Nc3cc(N4CCC(F)(F)CC4)ccn3)s2)c1, the IC50 is reported as 160 nM. NCCCCc1cncc(-c2cnc(Nc3cc(N4CCOCC4)ccn3)s2)c1 showed an IC50 greater than 10000 nM. With NCCNC(=O)c1cncc(-c2cnc(Nc3ccccc3Cl)s2)c1 the IC50 was greater than 10000 nM. O=C(NCCO)c1cncc(-c2cnc(Nc3cc(N4CCOCC4)ccn3)s2)c1 gave an IC50 greater than 10000 nM. O=C(NCC(F)(F)F)c1cncc(-c2cnc(Nc3cc(N4CCOCC4)ccn3)s2)c1 gave an IC50 of 705 nM. For CS(=O)(=O)N1CCN(c2ccnc(Nc3ncc(-c4cncc(C(=O)NCC(F)(F)F)c4)s3)c2)CC1, the IC50 was 2100 nM. With NCCNC(=O)c1cncc(-c2cnc(Nc3cc(N4CCC(F)CC4)ccn3)s2)c1 the IC50 was 350 nM.

Each compound was assayed against T1, Serine/threonine-protein kinase Chk1 (Homo sapiens, UniProt O14757) (assay: Inhibition of CHK1 by time resolved fluorescence assay). Details: not given.
T1 sequence (O14757 whole entry): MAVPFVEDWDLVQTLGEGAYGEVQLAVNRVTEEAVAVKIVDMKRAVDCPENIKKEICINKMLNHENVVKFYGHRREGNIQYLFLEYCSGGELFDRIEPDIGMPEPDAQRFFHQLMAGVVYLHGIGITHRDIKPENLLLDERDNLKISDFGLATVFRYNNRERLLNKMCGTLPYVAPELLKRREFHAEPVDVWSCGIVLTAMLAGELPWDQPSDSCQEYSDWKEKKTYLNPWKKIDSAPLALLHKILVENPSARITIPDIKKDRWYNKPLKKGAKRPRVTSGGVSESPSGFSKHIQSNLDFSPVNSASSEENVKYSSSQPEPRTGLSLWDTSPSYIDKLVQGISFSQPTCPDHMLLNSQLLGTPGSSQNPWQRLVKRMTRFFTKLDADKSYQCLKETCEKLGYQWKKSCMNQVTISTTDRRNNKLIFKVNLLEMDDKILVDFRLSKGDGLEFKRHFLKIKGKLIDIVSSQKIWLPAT
For Cc1ccc(-c2cnc(Nc3cccc(NCCCN)n3)s2)cn1, the IC50 was 27 nM. c1ccc(-c2cnc(Nc3cccc(N4CCNCC4)n3)s2)cc1 was tested, and the IC50 was 33 nM. Compound Cc1ccc(-c2cnc(Nc3cccc(N4CCNCC4)n3)s2)cn1 has an IC50 of 38 nM. Compound c1ncc(-c2cnc(Nc3cc(N4CCNCC4)ccn3)s2)cn1 has an IC50 of 29 nM. c1cc(Nc2ncc(-c3cncnc3)s2)nc(N2CCNCC2)c1 was tested, and the IC50 was 160 nM. Brc1cncc(-c2cnc(Nc3cc(N4CCNCC4)ccn3)s2)c1 gave an IC50 of 21 nM. For c1cn(-c2cncc(-c3cnc(Nc4cc(N5CCOCC5)ccn4)s3)c2)nn1, the IC50 was 9 nM. Compound Cn1cc(-c2cncc(-c3cnc(Nc4cc(N5CCNCC5)ccn4)s3)c2)cn1 has an IC50 of 6 nM. c1cncc(-c2cncc(-c3cnc(Nc4cc(N5CCNCC5)ccn4)s3)c2)c1 gave an IC50 of 5 nM. For O=C(O)c1cncc(-c2cnc(Nc3cc(N4CCNCC4)ccn3)s2)c1, the IC50 was 16 nM. In the case of NC(=O)c1cncc(-c2cnc(Nc3cc(N4CCOCC4)ccn3)s2)c1, the IC50 is reported as 10 nM. Cc1ccc(NC(=O)c2cncc(-c3cnc(Nc4cc(N5CCOCC5)ccn4)s3)c2)s1 showed an IC50 of 12 nM. In the case of CNC(=O)c1cncc(-c2cnc(Nc3cc(N4CCOCC4)ccn3)s2)c1, the IC50 is reported as 7 nM. With NCCNC(=O)c1cncc(-c2cnc(Nc3cc(Cl)ccn3)s2)c1 the IC50 was 16 nM. In the case of NCCNC(=O)c1cncc(-c2cnc(Nc3ncccc3Cl)s2)c1, the IC50 is reported as 0.3 nM. Compound Cc1cccnc1Nc1ncc(-c2cncc(C(=O)NCCN)c2)s1 has an IC50 of 0.4 nM. NCCNC(=O)c1cccc(-c2cnc(Nc3cc(N4CCC(F)(F)CC4)ccn3)s2)c1 showed an IC50 of 8 nM. With NCCCCc1cncc(-c2cnc(Nc3cc(N4CCOCC4)ccn3)s2)c1 the IC50 was 12 nM. NCCNC(=O)c1cncc(-c2cnc(Nc3ccccc3Cl)s2)c1 showed an IC50 of 33 nM. O=C(NCCO)c1cncc(-c2cnc(Nc3cc(N4CCOCC4)ccn3)s2)c1 showed an IC50 of 15 nM. Compound O=C(NCC(F)(F)F)c1cncc(-c2cnc(Nc3cc(N4CCOCC4)ccn3)s2)c1 has an IC50 of 1.6 nM. Compound CS(=O)(=O)N1CCN(c2ccnc(Nc3ncc(-c4cncc(C(=O)NCC(F)(F)F)c4)s3)c2)CC1 has an IC50 of 1.7 nM. In the case of NCCNC(=O)c1cncc(-c2cnc(Nc3cc(N4CCC(F)CC4)ccn3)s2)c1, the IC50 is reported as 0.07 nM.
